Measurements reported in patent US11897898B2, “Pyridine macrocycle compounds as ASK1 inhibiting agents” (BIOGEN MA INC., priority 2018, dated 2024).

Tests used:
[1] = biological target: T1, ASK1/MAP3K5 (Homo sapiens, UniProt Q99683); assay: ASK1 enzyme assay (ASK1/MAP3K5 assay by Reaction Biology Corp., 33P-ATP filter-binding); format: biochemical; conditions: 20 μM myelin basic protein and 10 μM ATP; class symbols
T1 construct: purchased Reaction Biology Corp. (Malvern, Pa.)
T1 sequence (Q99683 1-1374): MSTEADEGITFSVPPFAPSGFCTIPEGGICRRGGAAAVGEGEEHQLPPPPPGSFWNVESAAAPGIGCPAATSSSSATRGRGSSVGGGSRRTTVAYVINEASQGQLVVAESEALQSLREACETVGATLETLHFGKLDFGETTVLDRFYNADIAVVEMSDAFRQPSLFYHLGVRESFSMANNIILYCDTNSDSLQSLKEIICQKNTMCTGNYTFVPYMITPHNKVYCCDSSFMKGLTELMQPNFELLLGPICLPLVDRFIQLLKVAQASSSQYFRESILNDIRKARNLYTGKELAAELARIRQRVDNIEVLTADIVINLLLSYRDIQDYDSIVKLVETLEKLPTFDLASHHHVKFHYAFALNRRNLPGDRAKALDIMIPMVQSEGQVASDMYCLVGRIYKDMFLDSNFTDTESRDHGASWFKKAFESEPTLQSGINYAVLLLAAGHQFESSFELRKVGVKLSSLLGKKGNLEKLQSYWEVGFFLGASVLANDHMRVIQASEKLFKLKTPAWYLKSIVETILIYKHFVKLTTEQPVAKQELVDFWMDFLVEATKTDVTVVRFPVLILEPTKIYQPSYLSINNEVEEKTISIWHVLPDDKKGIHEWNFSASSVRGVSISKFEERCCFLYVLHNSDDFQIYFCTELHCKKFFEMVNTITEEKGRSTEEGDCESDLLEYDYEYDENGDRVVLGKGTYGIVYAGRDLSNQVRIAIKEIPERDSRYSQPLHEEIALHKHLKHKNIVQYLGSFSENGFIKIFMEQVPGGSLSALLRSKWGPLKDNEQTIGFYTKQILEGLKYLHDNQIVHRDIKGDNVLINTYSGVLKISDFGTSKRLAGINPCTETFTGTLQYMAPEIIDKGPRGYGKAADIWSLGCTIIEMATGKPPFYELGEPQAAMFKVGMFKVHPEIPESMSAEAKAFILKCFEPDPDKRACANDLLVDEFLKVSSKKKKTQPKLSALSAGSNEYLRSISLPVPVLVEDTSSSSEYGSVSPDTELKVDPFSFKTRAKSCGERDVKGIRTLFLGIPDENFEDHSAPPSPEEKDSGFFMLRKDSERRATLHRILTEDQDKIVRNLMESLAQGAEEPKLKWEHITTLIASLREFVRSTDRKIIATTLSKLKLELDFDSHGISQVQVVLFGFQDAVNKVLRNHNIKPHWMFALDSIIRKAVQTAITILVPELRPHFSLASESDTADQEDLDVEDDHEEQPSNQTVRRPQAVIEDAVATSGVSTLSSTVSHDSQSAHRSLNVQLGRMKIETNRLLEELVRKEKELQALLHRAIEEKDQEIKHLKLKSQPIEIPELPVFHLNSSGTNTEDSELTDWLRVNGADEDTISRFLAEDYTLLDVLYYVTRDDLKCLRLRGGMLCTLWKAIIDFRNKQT
Description: The protein kinase inhibitory activity of the compounds described herein were tested using the ASK1/MAP3K5 assay by Reaction Biology Corp. (Malvern, Pa.). The assay procedure follows (and is also available on the Reaction Biology Corp. website). • Base Reaction Buffer: 20 mM Hepes (pH 7.5), 10 mM MgCl2, 1 mM EGTA, • 0.02% Brij35, 0.02 mg/mL BSA, 0.1 mM Na3VO4, 2 mM DTT, 1% DMSO; • Substrate: 20 μM of myelin basic protein (MBP) and 10 μM ATP; • Protein kinase: ASK1/MAP3K5. • Reaction Procedure: • 1. Prepare indicated substrate in freshly prepared Base Reaction Buffer. • 2. Deliver any required cofactors to the substrate solution. • 3. Deliver indicated kinase into the substrate solution and gently mix. • 4. Deliver compounds in DMSO into the kinase reaction mixture by Acoustic; technology (Echo550; nanoliter range), incubate for 20 minutes at room temperature. • 5. Deliver ^33P-ATP (specific activity 10 μCi/μL) into the reaction mixture to initiate the reaction. • 6. Incubate kinase reaction for 2 hours at room temperature. • 7. Reactions are spotted onto P81 ion exchange paper. • 8. Detect kinase activity by filter-binding method.

[2] = biological target: T2, ASK1 T838 auto phosphorylation (Homo sapiens, UniProt Q99683); assay: ASK1 (AUTO PHOS T838) assay in HEK-293T cells, MSD format; format: cell-based; conditions: HEK-293T cells transfected with ASK1-V5, 1 hr compound incubation
T2 construct: ASK1-V5 tagged full length plasmid; expressed in transfected cells; host or cells: HEK-293T
T2 sequence (Q99683 1-1374): T1 sequence (Q99683 1-1374)
Description: ASK1 T838 auto phosphorylation was measured in HEK-293T cells using MSD assay format. HEK 293T cells were seeded in 15 cm plates at a density of 18 million cells and 20 mL DMEM with 10% FBS, Pen/Strep media. The plates were incubated at 37° C. overnight. Media on plates was changed to OPTI-MEM, serum free media and cells were transfected with 9 μg of ASK1-V5 tagged full length plasmid using Lipofectamine 2000 (Invitrogen) and the plates were incubated at 37° C. overnight. Cells were trypsinized, counted on Nexcellometer and plated into 96 well tissue culture plates with 100,000 cells/well and 200 μL media. Cells were incubated for 4 hr at 37° C. then ASK1 compounds were added using a HP 300e. Compounds were tested at 20 μM with 3 fold, 10 point dilution points then incubated for 1 hr at 37° C. A lysis buffer (Cell Signaling) was prepared with protease and phosphatase inhibitor and maintained at 4° C. until use. Media from cells was discarded and 120 μL of cold lysis buffer was added to the cells, the plate was shaken 4° C. for 1 hr. Lysate was mixed using Apricot liquid handler; aspirating up and down 16 times at high speed using 50 μL volume. 50 μL of cell lysates were transferred to a pre-coated MSD plates containing mouse anti-V5 antibody (1:500 dilution) and washed 3× with MSD wash buffer (TBST) and blocked with a 3% BSA solution. Plates were then incubated on a plate shaker overnight at 4° C. Plates were washed 3× with MSD wash buffer and 50 μL of rabbit anti-pASK1 T838 antibody was added to the wells and incubated for 2 hr at room temperature on a plate shaker. Plates were then washed and 50 μL of goat anti-rabbit sulfa-tag (1:500 dilution) was added to wells, and incubated for 1 hr at room temperature on a plate shaker. Plates were washed 3× and 150 μL of 2×MSD Read buffer was added to wells. Plates were immediately read on a MSD Instrument Reader where chemoluminecense signal was measured. Data was analyzed using Graph Pad or Genedata, the data was normalized and plotted, % activity versus log of compound concentration. The IC50 values were obtained from a 4 parameter fit.

| SMILES | IC50 [1] [nM] | IC50 ([2]; class symbols) [nM] | IC50 [2] [nM] |
| --- | --- | --- | --- |
| C[C@H]1CCCOc2ncc(N3CC4CC(C3)O4)cc2C(=O)Nc2cccc(n2)-c2nncn21 [Compound 8, (10S)-5^5-(6-Oxa-3-azabicyclo[3.1.1]heptan-3-yl)-10-methyl-1^4H-6-oxa-3-aza-2(2,6),5(3,2)-dipyridina-1(3,4)-triazolacyclodecaphan-4-one] | ≤ 100 | ≤ 100 |  |
| C[C@H]1CCCOc2ncc(C3=CCN(C)CC3)cc2C(=O)Nc2cccc(n2)-c2nncn21 [Compound 15, (S)-10-Methyl-5^5-(1-methyl-1,2,3,6-tetrahydropyridin-4-yl)-1^4H-6-oxa-3-aza-2(2,6),5(3,2)-dipyridina-1(3,4)-triazolacyclodecaphan-4-one] | ≤ 100 | ≤ 100 |  |
| C[C@H]1CCCOc2ncc(-c3ccnnc3)cc2C(=O)Nc2cccc(n2)-c2nncn21 [Compound 23, (S)-10-Methyl-5^5-(pyridazin-4-yl)-1^4H-6-oxa-3-aza-2(2,6),5(3,2)-dipyridina-1(3,4)-triazolacyclodecaphan-4-one] | ≤ 100 | ≤ 100 |  |
| C[C@@H]1CCCOc2ncc(-c3cnn(CCN(C)C)c3)cc2C(=O)Nc2cccc(n2)-c2nncn21 [Compound 24, (R)-5^5-(1-(2-(Dimethylamino)ethyl)-1H-pyrazol-4-yl)-10-methyl-1^4H-6-oxa-3-aza-2(2,6),5(3,2)-dipyridina-1(3,4)-triazolacyclodecaphan-4-one] | 1000 to 10000 | 1000 to 10000 |  |
| C[C@H]1CCCOc2ncc(-c3cnn(CCN(C)C)c3)cc2C(=O)Nc2cccc(n2)-c2nncn21 [Compound 25, (S)-5^5-(1-(2-(Dimethylamino)ethyl)-1H-pyrazol-4-yl)-10-methyl-1^4H-6-oxa-3-aza-2(2,6),5(3,2)-dipyridina-1(3,4)-triazolacyclodecaphan-4-one] | ≤ 100 | ≤ 100 |  |
| C[C@H]1CCCOc2ncc(-c3cncn3C)cc2C(=O)Nc2cccc(n2)-c2nncn21 [Compound 28, (S)-10-Methyl-5^5-(1-methyl-1H-imidazol-5-yl)-1^4H-6-oxa-3-aza-2(2,6),5(3,2)-dipyridina-1(3,4)-triazolacyclodecaphan-4-one] | ≤ 100 | ≤ 100 |  |
| C[C@@H]1CCCOc2ncc(C#N)cc2C(=O)Nc2cccc(n2)-c2nncn21 [Compound 37, (R)-10-Methyl-4-oxo-1^4H-6-oxa-3-aza-2(2,6),5(3,2)-dipyridina-1(3,4)-triazolacyclodecaphane-5^5-carbonitrile] | 1000 to 10000 |  | ≥ 10000 |
| C[C@H]1CCCOc2ncc(C(C)(C)O)cc2C(=O)Nc2cccc(n2)-c2nncn21 [Compound 39, (S)-5^5-(2-Hydroxypropan-2-yl)-10-methyl-1^4H-6-oxa-3-aza-2(2,6),5(3,2)-dipyridina-1(3,4)triazolacyclodecaphan-4-one] | ≤ 100 | 100 to 1000 |  |
| COC(C)(C)c1cnc2c(c1)C(=O)Nc1cccc(n1)-c1nncn1[C@@H](C)CCCO2 [Compound 40, (S)-5^5-(2-Methoxypropan-2-yl)-10-methyl-1^4H-6-oxa-3-aza-2(2,6),5(3,2)-dipyridina-1(3,4)-triazolacyclodecaphan-4-one] | ≤ 100 | 100 to 1000 |  |
| C[C@H]1CCCOc2ncc(OCCN(C)C)cc2C(=O)Nc2cccc(n2)-c2nncn21 [Compound 44, (S)-5^5-(2-(Dimethylamino)ethoxy)-10-methyl-1^4H-6-oxa-3-aza-2(2,6),5(3,2)-dipyridina-1(3,4)-triazolacyclodecaphan-4-one] | ≤ 100 | ≤ 100 |  |

Second part, the compound after the results:

| IC50 [1] [nM] | IC50 ([2]; class symbols) [nM] | IC50 [2] [nM] | SMILES |
| --- | --- | --- | --- |
| ≤ 100 | ≤ 100 |  | C[C@H]1CCCOc2ncc(N3CCOCC3)cc2C(=O)Nc2cccc(n2)-c2nncn21 [Compound 7, (S)-10-Methyl-5^5-morpholino-1^4H-6-oxa-3-aza-2(2,6),5(3,2)-dipyridina-1(3,4)-triazolacyclodecaphan-4-one] |
| ≤ 100 | ≤ 100 |  | C[C@H]1CCCOc2ncc(N3CC(F)(F)C3)cc2C(=O)Nc2cccc(n2)-c2nncn21 [Compound 9, (S)-5^5-(3,3-Difluoroazetidin-1-yl)-10-methyl-1^4H-6-oxa-3-aza-2(2,6),5(3,2)-dipyridina-1(3,4)-triazolacyclodecaphan-4-one] |
| ≤ 100 | ≤ 100 |  | C[C@@H]1CN(c2cnc3c(c2)C(=O)Nc2cccc(n2)-c2nncn2[C@@H](C)CCCO3)C[C@H](C)N1 [Compound 11, (S)-5^5-((3S,5R)-3,5-Dimethylpiperazin-1-yl)-10-methyl-1^4H-6-oxa-3-aza-2(2,6),5(3,2)-dipyridina-1(3,4)-triazolacyclodecaphan-4-one] |
| ≤ 100 | 100 to 1000 |  | C[C@@H]1CN(c2cnc3c(c2)C(=O)Nc2cccc(n2)-c2nncn2[C@@H](C)CCCO3)C[C@@H](C)N1 [Compound 14, (S)-5^5-((3R,5R)-3,5-Dimethylpiperazin-1-yl)-10-methyl-1^4H-6-oxa-3-aza-2(2,6),5(3,2)-dipyridina-1(3,4)-triazolacyclodecaphan-4-one] |
| ≤ 100 | ≤ 100 |  | COc1ccc(-c2cnc3c(c2)C(=O)Nc2cccc(n2)-c2nncn2[C@@H](C)CCCO3)cn1 [Compound 20, (S)-5^5-(6-Methoxypyridin-3-yl)-10-methyl-1^4H-6-oxa-3-aza-2(2,6),5(3,2)-dipyridina-1(3,4)-triazolacyclodecaphan-4-one] |
| ≤ 100 | ≤ 100 |  | C[C@H]1CCCOc2ncc(-c3cnccn3)cc2C(=O)Nc2cccc(n2)-c2nncn21 [Compound 22, (S)-10-Methyl-5^5-(pyrazin-2-yl)-1^4H-6-oxa-3-aza-2(2,6),5(3,2)-dipyridina-1(3,4)-triazolacyclodecaphan-4-one] |
